Tests used:
[1] = molecular target: Human CB1R (Cannabinoid receptor 1) (Homo sapiens (Human), UniProt P21554); experiment: CB-1 in vitro cAMP assay (HTRF), inverse agonism; assay type: cell-based; settings: mean where tested more than once
Description: (§1) CB1 and CB2 receptors are Gi-coupled GPCR. Activation of CB1 and CB2 receptors results in a decrease in cAMP production. An inverse agonist of the CB1 or CB2 receptor results in the opposite effect, an increase of cAMP production. The principle of this assay is based on HTRF® technology (Homogeneous Time-Resolved Fluorescence). The method is a competitive immunoassay between native cAMP produced by cells and the cAMP labeled with the fluorophore d2. The tracer binding is quantified by a Mab anti-cAMP labeled with Eu3+TBP-NHS Cryptate (supplied as part of the assay kit). The specific signal (i.e. energy transfer) is inversely proportional to the concentration of cAMP in the standard or sample.
(§2) Human CB1R (Cannabinoid receptor 1) was stably transfected in HEK-293 cells (DiscoveRx, cat: 93-0200C1). Human CB2R (Cannabinoid receptor 2) was stably transfected in HEK-293 cells (DiscoveRx, cat: 93-0201C1). Cell cultures were maintained in media: DMEM (Invitrogen Cat#12430-054) supplemented with 10% HI FBS (Invitrogen Cat#16140-071), 1% L-glutamine (Invitrogen Cat#25030-081), 0.2 mg/ml Hygromycin B (Invitrogen Cat#10687-010), 600 μg/mL G418 (Invitrogen Cat#10131-035), and 1X Penn/Strep (Invitrogen 15140-122). After cell expansion, aliquots were cryo-stored in media containing 5% DMSO (Pierce Cat#20684).
(§3) One day prior to experiments media was warmed to 37° C. and the cryo-stored cells were thawed in a 37° C. water bath. The cells were then added to media (10× volume) and the mixture was centrifuged at 1000 RPM for 5 min. The supernate was removed and the cells were re-suspended in media. A sample of the cell suspension was evaluated on a Cedex XS automated cell counter (Innovatis Systems) to determine viable cells/ml. Additional media was added to the cells to achieve a final cell density of 4E5 cells/mL. The cells were then plated into 384 well PDL white solid bottom plates (Greiner, Cat#781945) at 20 μL per well using a Multidrop (Thermo Scientific). Cells were removed from Row P (location of cAMP standards). Two columns of cells were plated into a clear bottom 384 well PDL coated plate (Greiner, Cat#781944) to view confluence the day of the assay. The cell plates were lidded and stored for 15 minutes in a hood, then transferred to an incubator (37° C., 5% CO2, 95% humidity) overnight.
(§4) DMSO was added to all wells of 384 well V bottom polystyrene plate (Greiner, Cat#781280) except to columns 1 and 13, rows 0 and P and wells M13-M23 and N13-N23. Test compounds (60 μL, 10 mM) were added to Column 1 and 13 (A1 through N1 and A13 through L13). Test compounds were serially diluted 1/3 by transferring and mixing 20 μl sample with 40 μL DMSO.
(§5) DMSO (40 μL) was added to wells of 384 well V bottom polystyrene plate: O2 through O11, M14 through M23, N14 through N23, and O14 through O23. AM630 (also known as [6-iodo-2-methyl-1-[2-(4-morpholinyl)ethyl]-1H-indol-3-yl](4-methoxyphenyl)-methanone, Cayman Chemical, Cat#10006974) (60 μL, 10 mM) was added to 01; and 1-(2,4-dichlorophenyl)-7-[(4-fluorophenyl)methylene]-4,5,6,7-tetrahydro-N-1-piperidinyl-1H-indazole-3-carboxamide (60 μL, 10 mM) was added to N13. The control was serially diluted 1/3 by transferring and mixing 20 μl sample with 40 μL DMSO. This process resulted 11 doses per control, 10 mM to […].
(§6) Cells plated the day prior to the assay in clear bottom plates were viewed on an inverse microscope to ensure confluency in the range of 60-75%. […]

[2] = molecular target: Human CB2R (Cannabinoid receptor 2) (Homo sapiens (Human), UniProt P34972); experiment: CB-2 in vitro cAMP assay (HTRF), inverse agonism; assay type: cell-based; settings: mean where tested more than once
Chain of Human CB2R (Cannabinoid receptor 2) (P34972 whole entry): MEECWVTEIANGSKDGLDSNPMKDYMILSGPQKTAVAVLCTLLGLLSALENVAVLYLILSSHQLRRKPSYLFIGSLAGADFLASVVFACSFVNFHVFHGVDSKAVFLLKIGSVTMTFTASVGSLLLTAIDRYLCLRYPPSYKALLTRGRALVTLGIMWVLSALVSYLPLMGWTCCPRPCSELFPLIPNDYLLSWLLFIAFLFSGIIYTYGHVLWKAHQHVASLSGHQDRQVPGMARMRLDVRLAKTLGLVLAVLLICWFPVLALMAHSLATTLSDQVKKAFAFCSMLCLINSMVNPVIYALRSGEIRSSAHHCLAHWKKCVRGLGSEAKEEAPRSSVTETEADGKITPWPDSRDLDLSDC
Description: as §1, §2, §3, §4, §5, §6

Chain of Human CB1R (Cannabinoid receptor 1) (P21554 whole entry): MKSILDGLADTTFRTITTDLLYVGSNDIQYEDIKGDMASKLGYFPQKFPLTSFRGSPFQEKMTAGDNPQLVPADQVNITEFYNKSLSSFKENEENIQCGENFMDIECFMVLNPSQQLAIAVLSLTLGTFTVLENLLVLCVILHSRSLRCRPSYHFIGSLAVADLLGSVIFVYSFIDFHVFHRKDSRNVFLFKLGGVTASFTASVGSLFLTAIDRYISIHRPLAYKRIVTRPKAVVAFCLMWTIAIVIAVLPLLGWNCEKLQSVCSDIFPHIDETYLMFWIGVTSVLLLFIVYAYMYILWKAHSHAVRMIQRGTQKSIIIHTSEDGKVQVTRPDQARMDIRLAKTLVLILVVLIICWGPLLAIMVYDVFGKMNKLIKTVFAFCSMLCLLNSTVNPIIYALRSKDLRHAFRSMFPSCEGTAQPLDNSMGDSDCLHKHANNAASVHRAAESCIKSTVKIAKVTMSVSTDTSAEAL

Compound	EC50 [1] [nM]	EC50 [2] [nM]
COC(=O)c1ccc(Nc2cc(=O)[nH]c3ccc(C(c4ccc(Cl)cc4)c4ccc(Cl)cc4)cc23)cc1 [Compound 85, Methyl 4-({6-[bis(4-chlorophenyl)methyl]-2-oxo-1,2-dihydroquinolin-4-yl}amino)benzoate]	70	> 10000
O=C(O)Cc1ccc(Nc2cc(=O)[nH]c3ccc(C(c4ccc(Cl)cc4)c4ccc(Cl)cc4)cc23)cc1 [Compound 125, [4-({6-[Bis(4-chlorophenyl)methyl]-2-oxo-1,2-dihydroquinolin-4-yl}amino)phenyl]acetic acid]	2480	> 10000
O=c1cc(CCc2cccc(Cl)c2)c2cc(C(c3ccc(Cl)cc3)c3nccs3)ccc2[nH]1 (stereo not drawn) [Compound 11, 4-(3-chlorophenethyl)-6-((4-chlorophenyl)(thiazol-2-yl)methyl)quinolin-2(1H)-one]	121	> 10000
CC(=O)N1CCN(c2cc(OS(=O)(=O)C(F)(F)F)nc3ccc(C(c4ccc(Cl)cc4)c4nccs4)cc23)CC1 (stereo not drawn) [Compound 522, 4-(4-Acetylpiperazin-1-yl)-6-[(4-chlorophenyl)(1,3-thiazol-2-yl)methyl]quinolin-2-yl trifluoromethanesulfonate]	> 10000	> 10000
O=c1cc(NCc2cncc(C(F)(F)F)c2)c2cc(C(c3ccc(Cl)cc3)c3ccc(Cl)cc3)ccc2[nH]1 [Compound 79, 6-[Bis(4-chlorophenyl)methyl]-4-({[5-(trifluoromethyl)pyridin-3-yl]methyl}amino)quinolin-2(1H)-one]	54	6750
O=c1cc(NC2CCN(S(=O)(=O)C(F)(F)F)CC2)c2cc(C(c3ccc(Cl)cc3)c3ccc(Cl)cc3)cc(NC3CCN(S(=O)(=O)C(F)(F)F)CC3)c2[nH]1 [Compound 99]	> 10000	> 10000
CC(C)(C)OC(=O)/N=C(/NC(=O)OC(C)(C)C)N1CCC(Nc2cc(=O)[nH]c3ccc(C(c4ccc(Cl)cc4)c4ccc(Cl)cc4)cc23)CC1 [Compound 119, (Z)-tert-butyl ((4-((6-(bis(4-chlorophenyl)methyl)-2-oxo-1,2-dihydroquinolin-4-yl)amino)piperidin-1-yl)((tert-butoxycarbonyl)imino)methyl)carbamate]	128	> 10000
O=C(O)CC(=O)N1CCC(Nc2cc(=O)[nH]c3ccc(C(c4ccc(Cl)cc4)c4ccc(Cl)cc4)cc23)CC1 [Compound 96, 3-[4-({6-[Bis(4-chlorophenyl)methyl]-2-oxo-1,2-dihydroquinolin-4-yl}amino)piperidin-1-yl]-3-oxopropanoic acid]	220	> 10000
O=C(O)c1ccc(C(=O)N2CCC(Nc3cc(=O)[nH]c4ccc(C(c5ccc(Cl)cc5)c5ccc(Cl)cc5)cc34)CC2)cc1 [Compound 116, 4-{[4-({6-[Bis(4-chlorophenyl)methyl]-2-oxo-1,2-dihydroquinolin-4-yl}amino)piperidin-1-yl]carbonyl}benzoic acid]	438	> 10000
O=c1cc(NC2CCN(S(=O)(=O)C(F)(F)F)CC2)c2cc(C(c3ccc(Cl)cc3)N3CCN(c4ccccc4)CC3)ccc2[nH]1 (stereo not drawn) [Compound 137, 6-((4-chlorophenyl)(4-phenylpiperazin-1-yl)methyl)-4-((1-((trifluoromethyl)sulfonyl)piperidin-4-yl)amino)quinolin-2(1H)-one]	290	> 10000
Cn1c(=O)cc(CCc2cccc(Cl)c2)c2cc(C(c3ccc(Cl)cc3)c3nccs3)ccc21 (stereo not drawn) [Compound 9, 4-(3-chlorophenethyl)-6-((4-chlorophenyl)(thiazol-2-yl)methyl)-1-methylquinolin-2(1H)-one]	169	> 10000

More lines, now with the values ahead:

EC50 [1] [nM]	EC50 [2] [nM]	Compound
23	7100	O=c1cc(NC2CCN(S(=O)(=O)C(F)(F)F)CC2)c2cc(C(c3ccc(F)cc3)c3ccc(Cl)cc3)ccc2[nH]1 (stereo not drawn) [Compound 52, 6-[(4-Chlorophenyl)(4-fluorophenyl)methyl]-4-({1-[(trifluoromethyl)sulfonyl]-piperidin-4-yl}amino)quinolin-2(1H)-one]
122	> 10000	O=c1cc(NC2CCN(S(=O)(=O)C(F)(F)F)CC2)c2cc(C(Oc3ccc(Cl)cc3)c3ccc(Cl)cc3)ccc2[nH]1 (stereo not drawn) [Compound #136, 6-[4-chlorophenoxy(4-chlorophenyl)methyl]-4-[[1-(trifluoromethane)sulfonylpiperidin-4-yl]amino]-1,2-dihydroquinolin-2-one]
111	3700	O=c1cc(NC2CCC(C(F)(F)F)CC2)c2cc(C(c3ccc(Cl)cc3)c3ccc(Cl)cc3)ccc2[nH]1 (stereo not drawn) [Compound 88, 6-[Bis(4-chlorophenyl)methyl]-4-{[4-(trifluoromethyl)cyclohexyl]-amino}quinolin-2(1H)-one]
103	> 10000	CC(C)(C)OC(=O)CCN1CCC(Nc2cc(=O)[nH]c3ccc(C(c4ccc(Cl)cc4)c4ccc(Cl)cc4)cc23)CC1 [Compound 114, tert-butyl 3-(4-((6-(bis(4-chlorophenyl)methyl)-2-oxo-1,2-dihydroquinolin-4-yl)amino)piperidin-1-yl)propanoate]
159	240	O=C(O)c1ccc(S(=O)(=O)N2CCC(Nc3cc(=O)[nH]c4ccc(C(c5ccc(Cl)cc5)c5ccc(Cl)cc5)cc34)CC2)cc1 [Compound 122, 4-((4-((6-(bis(4-chlorophenyl)methyl)-2-oxo-1,2-dihydroquinolin-4-yl)amino)piperidin-1-yl)sulfonyl)benzoic acid]
121	4800	COc1cc(NC2CCN(S(=O)(=O)C(F)(F)F)CC2)c2cc(C(c3ccc(Cl)cc3)c3ccc(Cl)cc3)cc(Br)c2n1 [Compound 546, 6-(bis(4-chlorophenyl)methyl)-8-bromo-2-methoxy-N-(1-((trifluoromethyl)sulfonyl)piperidin-4-yl)quinolin-4-amine]
> 10000	> 10000	CC(C)(C)OC(=O)COc1cc(NC2CCN(S(=O)(=O)C(F)(F)F)CC2)c2cc(C(c3ccc(Cl)cc3)c3ccc(Cl)cc3)ccc2n1 [Compound 531, tert-Butyl ({6-[bis(4-chlorophenyl)methyl]-4-({1-[(trifluoromethyl)sulfonyl]-piperidin-4-yl}amino)quinolin-2-yl}oxy)acetate]
10	50	O=c1cc(NC2CCN(S(=O)(=O)C(F)(F)F)CC2)c2cc(C(c3ccc(Cl)cc3)c3ccc(Cl)cc3)cc(Br)c2[nH]1 [Compound 92, 6-(bis(4-chlorophenyl)methyl)-8-bromo-4-((1-((trifluoromethyl)sulfonyl)piperidin-4-yl)amino)quinolin-2(1H)-one]
967	> 10000	NC(=O)Cn1c(=O)cc(NC2CCN(S(=O)(=O)C(F)(F)F)CC2)c2cc(C(c3ccc(Cl)cc3)c3ccc(Cl)cc3)ccc21 [Compound 90, 2-(6-(bis(4-chlorophenyl)methyl)-2-oxo-4-((1-((trifluoromethyl)sulfonyl)piperidin-4-yl)amino)quinolin-1(2H)-yl)acetamide]
827	80	O=c1cc(C2=CCN(S(=O)(=O)C(F)(F)F)CC2)c2cc(C(c3ccc(Cl)cc3)c3ccc(Cl)cc3)ccc2[nH]1 [Compound 17, 6-(bis(4-chlorophenyl)methyl)-4-(1-((trifluoromethyl)sulfonyl)-1,2,3,6-tetrahydropyridin-4-yl)quinolin-2(1H)-one]

From patent US9266835B2, “Quinoline derivatives useful as CB-1 inverse agonists” (JANSSEN PHARMACEUTICA NV, priority 2014, dated 2016)
